Source: patent US9624206B2, “Antibacterial 1H-indazole and 1H-indole derivatives” (priority 2013, dated 2017)
Values after ≈ are worked out from the molar mass of the structure shown.

Tests used:
Assay in all cases: Bacterial growth minimal inhibitory concentration (microdilution, CLSI M7-A7)
Assay type in all cases: cell-based
[1] = system: Acinetobacter baumannii T6474; settings: Acinetobacter baumannii, T6474; multiply-resistant strain (in particular quinolone-resistant); cation-adjusted Mueller-Hinton Broth
Protocol: (§1) Minimal Inhibitory Concentrations (MICs; mg/L) were determined in cation-adjusted Mueller-Hinton Broth by a microdilution method following the description given in “Methods for Dilution Antimicrobial Susceptibility Tests for Bacteria that Grow Aerobically”, Approved standard, 7th ed., Clinical and Laboratory Standards Institute (CLSI) Document M7-A7, Wayne, Pa., USA (2006).
(§2) All Example compounds were tested against several Gram-positive and Gram-negative bacteria. […] K. pneumoniae A-651 and Acinetobacter baumannii T6474 are multiply-resistant strains (in particular quinolone-resistant), while E. coli ATCC25922 and P. aeruginosa ATCC27853 are quinolone-sensitive strains.

P. aeruginosa ATCC27853 = settings: Pseudomonas aeruginosa, ATCC27853; quinolone-sensitive strain; cation-adjusted Mueller-Hinton Broth
Protocol: as §1, §2

E. coli ATCC25922 = settings: Escherichia coli, ATCC25922; quinolone-sensitive strain; cation-adjusted Mueller-Hinton Broth
Protocol: as §1, §2

K. pneumoniae A-651 = settings: Klebsiella pneumoniae, A651; multiply-resistant strain (in particular quinolone-resistant); cation-adjusted Mueller-Hinton Broth
Protocol: as §1, §2

SMILES | MIC [1] | MIC (P. aeruginosa ATCC27853) | MIC (E. coli ATCC25922) | MIC (K. pneumoniae A-651)
C[C@@](CCn1ncc2cc(C#Cc3ccc([C@@H](O)CO)cc3)ccc21)(C(=O)NO)S(C)(=O)=O [Example 21, (R)-4-(5-((4-((R)-1,2-dihydroxyethyl)phenyl)ethynyl)-1H-indazol-1-yl)-N-hydroxy-2-methyl-2-(methylsulfonyl)butanamide] | 0.5 µg/mL (≈ 1.06 µM) | 1 µg/mL (≈ 2.12 µM) | 1 µg/mL (≈ 2.12 µM) | 1 µg/mL (≈ 2.12 µM)
CC(CCn1ccc2cc(-c3ccc(OC(F)(F)F)cc3)ccc21)(C(=O)NO)S(C)(=O)=O (racemic) [RE9, (RS)—N-hydroxy-2-methyl-2-(methylsulfonyl)-4-(5-(4-(trifluoromethoxy)phenyl)-1H-indol-1-yl)butanamide] | 2 µg/mL (≈ 4.25 µM) | 8 µg/mL (≈ 17 µM) | 4 µg/mL (≈ 8.5 µM) | 2 µg/mL (≈ 4.25 µM)
C[C@@](CCn1ncc2c(F)c(C#Cc3ccc(C4(O)COC4)cc3)ccc21)(C(=O)NO)S(C)(=O)=O [Example 30, (R)-4-(4-fluoro-5-((4-(3-hydroxyoxetan-3-yl)phenyl)ethynyl)-1H-indazol-1-yl)-N-hydroxy-2-methyl-2-(methylsulfonyl)butanamide] | 0.125 µg/mL (≈ 0.249 µM) | 1 µg/mL (≈ 1.99 µM) | 0.25 µg/mL (≈ 0.498 µM) | 0.5 µg/mL (≈ 0.997 µM)
COc1ccc(-c2cc3ccn(CCC(C)(C(=O)NO)S(C)(=O)=O)c3cc2F)c(F)c1 (racemic) [RE11, (RS)-4-(6-fluoro-5-(2-fluoro-4-methoxyphenyl)-1H-indol-1-yl)-N-hydroxy-2-methyl-2-(methylsulfonyl)butanamide] | 4 µg/mL (≈ 8.84 µM) | 8 µg/mL (≈ 17.7 µM) | 1 µg/mL (≈ 2.21 µM) | 2 µg/mL (≈ 4.42 µM)
C[C@@](CCn1ncc2c(F)c(C#CC#CC3(O)COC3)ccc21)(C(=O)NO)S(C)(=O)=O [Example 38, (R)-4-(4-fluoro-5-((3-hydroxyoxetan-3-yl)buta-1,3-diyn-1-yl)-1H-indazol-1-yl)-N-hydroxy-2-methyl-2-(methylsulfonyl)butanamide] | 32 µg/mL (≈ 71.2 µM) | 1 µg/mL (≈ 2.22 µM) | 0.5 µg/mL (≈ 1.11 µM) | 1 µg/mL (≈ 2.22 µM)
CC(CCn1ncc2cc(C#Cc3ccc(N)cc3)ccc21)(C(=O)NO)S(C)(=O)=O (racemic) [RE6, (RS)-4-(5-((4-aminophenyl)ethynyl)-1H-indazol-1-yl)-N-hydroxy-2-methyl-2-(methylsulfonyl)butanamide] | 1 µg/mL (≈ 2.34 µM) | 8 µg/mL (≈ 18.8 µM) | 0.25 µg/mL (≈ 0.586 µM) | 0.5 µg/mL (≈ 1.17 µM)
C[C@@](CCn1ncc2cc(C#Cc3ccc([C@H]4C[C@@H]4CO)cc3)ccc21)(C(=O)NO)S(C)(=O)=O [Example 19, (R)—N-hydroxy-4-(5-((4-((1S,2S)-2-(hydroxymethyl)cyclopropyl)phenyl)ethynyl)-1H-indazol-1-yl)-2-methyl-2-(methylsulfonyl)butanamide] | ≤ 0.063 µg/mL | 1 µg/mL (≈ 2.08 µM) | 0.125 µg/mL (≈ 0.26 µM) | 0.25 µg/mL (≈ 0.519 µM)
C[C@@](CCn1ncc2c(F)c(C#CC#CC3(CO)CC3)ccc21)(C(=O)NO)S(C)(=O)=O [Example 39, (R)-4-(4-fluoro-5-((1-(hydroxymethyl)cyclopropyl)buta-1,3-diyn-1-yl)-1H-indazol-1-yl)-N-hydroxy-2-methyl-2-(methylsulfonyl)butanamide] | 32 µg/mL (≈ 71.5 µM) | 2 µg/mL (≈ 4.47 µM) | 0.25 µg/mL (≈ 0.559 µM) | 0.5 µg/mL (≈ 1.12 µM)
C[C@@](CCn1ncc2cc(C#CC#CC3(CN)CC3)ccc21)(C(=O)NO)S(C)(=O)=O [Example 54, (R)-4-(5-((1-(aminomethyl)cyclopropyl)buta-1,3-diyn-1-yl)-1H-indazol-1-yl)-N-hydroxy-2-methyl-2-(methylsulfonyl)butanamide] | > 32 µg/mL | 8 µg/mL (≈ 18.7 µM) | 8 µg/mL (≈ 18.7 µM) | 16 µg/mL (≈ 37.3 µM)
C[C@H](O)c1ccc(C#Cc2ccc3c(ccn3CC[C@](C)(C(=O)NO)S(C)(=O)=O)c2)cc1 [Example 35, (R)—N-hydroxy-4-(5-((4-((S)-1-hydroxyethyl)phenyl)ethynyl)-1H-indol-1-yl)-2-methyl-2-(methylsulfonyl)butanamide] | 0.25 µg/mL (≈ 0.55 µM) | 2 µg/mL (≈ 4.4 µM) | ≤ 0.063 µg/mL | 0.25 µg/mL (≈ 0.55 µM)
C[C@@](CCn1ncc2cc(C#CC#C[C@@H]3C[C@H]3CO)ccc21)(C(=O)NO)S(C)(=O)=O [Example 42, (R)—N-hydroxy-4-(5-(((1R,2R)-2-(hydroxymethyl)cyclopropyl)buta-1,3-diyn-1-yl)-1H-indazol-1-yl)-2-methyl-2-(methylsulfonyl)butanamide] | 32 µg/mL (≈ 74.5 µM) | 0.5 µg/mL (≈ 1.16 µM) | ≤ 0.063 µg/mL | 0.25 µg/mL (≈ 0.582 µM)
C[C@@](CCn1ncc2cc(C#Cc3ccc(NC(=O)CO)cc3)ccc21)(C(=O)NO)S(C)(=O)=O [Example 28, (R)—N-hydroxy-4-(5-((4-(2-hydroxyacetamido)phenyl)ethynyl)-1H-indazol-1-yl)-2-methyl-2-(methylsulfonyl)butanamide] | 0.5 µg/mL (≈ 1.03 µM) | 4 µg/mL (≈ 8.26 µM) | 1 µg/mL (≈ 2.06 µM) | 2 µg/mL (≈ 4.13 µM)
CC(CCn1ncc2cc(-c3ccc(OC(F)(F)F)cc3)ccc21)(C(=O)NO)S(C)(=O)=O (racemic) [RE7, (RS)—N-hydroxy-2-methyl-2-(methylsulfonyl)-4-(5-(4-(trifluoromethoxy)phenyl)-1H-indazol-1-yl)butanamide] | 8 µg/mL (≈ 17 µM) | 8 µg/mL (≈ 17 µM) | 4 µg/mL (≈ 8.48 µM) | 1 µg/mL (≈ 2.12 µM)
CC(C)(N)C#CC#Cc1ccc2c(cnn2CC[C@](C)(C(=O)NO)S(C)(=O)=O)c1 [Example 24, (R)-4-(5-(5-amino-5-methylhexa-1,3-diyn-1-yl)-1H-indazol-1-yl)-N-hydroxy-2-methyl-2-(methylsulfonyl)butanamide] | > 32 µg/mL | 1 µg/mL (≈ 2.4 µM) | 1 µg/mL (≈ 2.4 µM) | 4 µg/mL (≈ 9.6 µM)
C[C@@](CCn1ncc2cc(C#Cc3ccc(CO)cc3)ccc21)(C(=O)NO)S(C)(=O)=O [Example 4, (R)—N-hydroxy-4-(5-((4-(hydroxymethyl)phenyl)ethynyl)-1H-indazol-1-yl)-2-methyl-2-(methylsulfonyl)butanamide] | 0.125 µg/mL (≈ 0.283 µM) | 2 µg/mL (≈ 4.53 µM) | 0.125 µg/mL (≈ 0.283 µM) | ≤ 0.063 µg/mL
C[C@@](CCn1ccc2cc(C#CC#C[C@H]3C[C@@H]3CO)ccc21)(C(=O)NO)S(C)(=O)=O [Example 17, (R)—N-hydroxy-4-(5-(((1S,2S)-2-(hydroxymethyl)cyclopropyl)buta-1,3-diyn-1-yl)-1H-indol-1-yl)-2-methyl-2-(methylsulfonyl)butanamide] | 16 µg/mL (≈ 37.3 µM) | 0.5 µg/mL (≈ 1.17 µM) | ≤ 0.063 µg/mL | 0.125 µg/mL (≈ 0.292 µM)
CC(CCn1ncc2cc(C#Cc3ccc(CN4CCOCC4)cc3)ccc21)(C(=O)NO)S(C)(=O)=O.Cc1ccc(S(=O)(=O)O)cc1 (racemic) [RE5, (RS)—N-hydroxy-2-methyl-2-(methylsulfonyl)-4-(5-((4-(morpholinomethyl)phenyl)ethynyl)-1H-indazol-1-yl)butanamide 4-toluenesulfonic acid salt] | 32 µg/mL | 16 µg/mL | 0.5 µg/mL | 0.5 µg/mL
C[C@@](CCn1ccc2cc(C#CC#CC3(O)COC3)ccc21)(C(=O)NO)S(C)(=O)=O [Example 11, (R)—N-hydroxy-4-(5-((3-hydroxyoxetan-3-yl)buta-1,3-diyn-1-yl)-1H-indol-1-yl)-2-methyl-2-(methylsulfonyl)butanamide] | 16 µg/mL (≈ 37.2 µM) | 1 µg/mL (≈ 2.32 µM) | 0.5 µg/mL (≈ 1.16 µM) | 0.25 µg/mL (≈ 0.581 µM)
C[C@@](CCn1ccc2cc(C#Cc3ccc(CCO)cc3)ccc21)(C(=O)NO)S(C)(=O)=O [Example 45, (R)—N-hydroxy-4-(5-((4-(2-hydroxyethyl)phenyl)ethynyl)-1H-indol-1-yl)-2-methyl-2-(methylsulfonyl)butanamide] | 8 µg/mL (≈ 17.6 µM) | 1 µg/mL (≈ 2.2 µM) | ≤ 0.063 µg/mL | 0.25 µg/mL (≈ 0.55 µM)
CC(CCn1ccc2c(F)c(C#Cc3ccc(C4(O)COC4)cc3)ccc21)(C(=O)NO)S(C)(=O)=O (racemic) [RE13, (RS)-4-(4-fluoro-5-((4-(3-hydroxyoxetan-3-yl)phenyl)ethynyl)-1H-indol-1-yl)-N-hydroxy-2-methyl-2-(methylsulfonyl)butanamide] | 4 µg/mL (≈ 7.99 µM) | 2 µg/mL (≈ 4 µM) | 0.25 µg/mL (≈ 0.499 µM) | 0.5 µg/mL (≈ 0.999 µM)
C[C@@](CCn1ccc2cc(C#CC#C[C@@H]3C[C@H]3CO)ccc21)(C(=O)NO)S(C)(=O)=O [Example 18, (R)—N-hydroxy-4-(5-(((1R,2R)-2-(hydroxymethyl)cyclopropyl)buta-1,3-diyn-1-yl)-1H-indol-1-yl)-2-methyl-2-(methylsulfonyl)butanamide] | 16 µg/mL (≈ 37.3 µM) | 0.5 µg/mL (≈ 1.17 µM) | ≤ 0.063 µg/mL | ≤ 0.063 µg/mL
C[C@@](CCn1ncc2cc(C#Cc3ccc(CCO)cc3)ccc21)(C(=O)NO)S(C)(=O)=O [Example 14, (R)—N-hydroxy-4-(5-((4-(2-hydroxyethyl)phenyl)ethynyl)-1H-indazol-1-yl)-2-methyl-2-(methylsulfonyl)butanamide] | 0.125 µg/mL (≈ 0.274 µM) | 1 µg/mL (≈ 2.2 µM) | ≤ 0.063 µg/mL | 0.25 µg/mL (≈ 0.549 µM)
CC(C)(O)c1ccc(C#Cc2ccc3c(cnn3CC[C@](C)(C(=O)NO)S(C)(=O)=O)c2)cc1 [Example 8, (R)—N-hydroxy-4-(5-((4-(2-hydroxypropan-2-yl)phenyl)ethynyl)-1H-indazol-1-yl)-2-methyl-2-(methylsulfonyl)butanamide] | 0.25 µg/mL (≈ 0.532 µM) | 2 µg/mL (≈ 4.26 µM) | 0.125 µg/mL (≈ 0.266 µM) | 0.25 µg/mL (≈ 0.532 µM)
C[C@@](CCn1ncc2cc(C#Cc3ccc(C4(O)COC4)cc3)ccc21)(C(=O)NO)S(C)(=O)=O [Example 12, (R)—N-hydroxy-4-(5-((4-(3-hydroxyoxetan-3-yl)phenyl)ethynyl)-1H-indazol-1-yl)-2-methyl-2-(methylsulfonyl)butanamide] | 0.25 µg/mL (≈ 0.517 µM) | 1 µg/mL (≈ 2.07 µM) | 0.25 µg/mL (≈ 0.517 µM) | 0.25 µg/mL (≈ 0.517 µM)
